Laboratory results published in ChEMBL document CHEMBL1201862, “PubChem BioAssay data set” (2004).
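Test compounds were applied to cells in 96-well plates for 48 hours at 5 doses. Abbreviation: GI50, concentration required for 50% inhibition of growth.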 Active and inactive are the calls of the source. No stated cut-off is given here; in the data, active = GI50 up to about 1.1 µM and inactive = higher.

Tests used:
Assay in all cases: inhibition of tumour cell growth, NCI panel, 48 h
[1] = test system: K562
[2] = test system: PC-3
[3] = test system: NCI-H460
[4] = test system: M14
[5] = test system: T47D
[6] = test system: SK-MEL-28
[7] = test system: MCF7
[8] = test system: NCI-H23
[9] = test system: MOLT-4
[10] = test system: MDA-N
[11] = test system: Hs-578T
[12] = test system: OVCAR-5
[13] = test system: MDA-MB-435
[14] = test system: CAKI-1
[15] = test system: UACC-257
[16] = test system: CCRF-CEM
[17] = test system: UO-31
[18] = test system: UACC-62
[19] = test system: HOP-92
[20] = test system: EKVX
[21] = test system: MDA-MB-231
[22] = test system: A498
[23] = test system: HCC 2998
[24] = test system: HOP-62
[25] = test system: NCI/ADR-RES
[26] = test system: RPMI-8226
[27] = test system: Malme-3M
[28] = test system: HCT-116
[29] = test system: U-251
[30] = test system: COLO 205
[31] = test system: SW-620
[32] = test system: DU-145
[33] = test system: OVCAR-8
[34] = test system: SR
[35] = test system: SNB-75
[36] = test system: HT-29
[37] = test system: KM12
[38] = test system: SNB-19
[39] = test system: 786-0
[40] = test system: LOX IMVI
[41] = test system: OVCAR-3
[42] = test system: SF-268
[43] = test system: A549
[44] = test system: SF-295
[45] = test system: NCI-H226
[46] = test system: HL-60
[47] = test system: RXF 393
[48] = test system: SF-539
[49] = test system: SK-OV-3
[50] = test system: TK-10
[51] = test system: ACHN
[52] = test system: SN12C
[53] = test system: HCT-15
[54] = test system: SK-MEL-5
[55] = test system: NCI-H522
[56] = test system: SK-MEL-2
[57] = test system: IGROV-1
[58] = test system: OVCAR-4

SMILES: Cc1ccc(Nc2n[nH]c(=S)s2)cc1
- GI50 [1]: > 100 µM (inactive)
- GI50 [2]: > 100 µM (inactive)
- GI50 [3]: > 100 µM (inactive)
- GI50 [4]: > 100 µM (inactive)
- GI50 [5]: 96.6 µM (inactive)
- GI50 [6]: > 100 µM (inactive)
- GI50 [7]: > 100 µM (inactive)
- GI50 [8]: > 100 µM (inactive)
- GI50 [9]: > 100 µM (inactive)
- GI50 [10]: 59.4 µM (inactive)
- GI50 [11]: > 100 µM (inactive)
- GI50 [12]: > 100 µM (inactive)
- GI50 [13]: 42.4 µM (inactive)
- GI50 [14]: > 100 µM (inactive)
- GI50 [15]: > 100 µM (inactive)
- GI50 [16]: > 100 µM (inactive)
- GI50 [17]: 87.9 µM (inactive)
- GI50 [18]: > 100 µM (inactive)
- GI50 [19]: > 100 µM (inactive)
- GI50 [20]: > 100 µM (inactive)
- GI50 [21]: > 100 µM (inactive)
- GI50 [22]: > 100 µM (inactive)
- GI50 [23]: > 100 µM (inactive)
- GI50 [24]: > 100 µM (inactive)
- GI50 [25]: > 100 µM (inactive)
- GI50 [26]: > 100 µM (inactive)
- GI50 [27]: > 100 µM (inactive)
- GI50 [28]: > 100 µM (inactive)
- GI50 [29]: > 100 µM (inactive)
- GI50 [30]: > 100 µM (inactive)
- GI50 [31]: > 100 µM (inactive)
- GI50 [32]: > 100 µM (inactive)
- GI50 [33]: > 100 µM (inactive)
- GI50 [34]: > 100 µM (inactive)
- GI50 [35]: > 100 µM (inactive)
- GI50 [36]: > 100 µM (inactive)
- GI50 [37]: 69 µM (inactive)
- GI50 [38]: > 100 µM (inactive)
- GI50 [39]: > 100 µM (inactive)
- GI50 [40]: > 100 µM (inactive)
- GI50 [41]: > 100 µM (inactive)
- GI50 [42]: > 100 µM (inactive)
- GI50 [43]: > 100 µM (inactive)
- GI50 [44]: > 100 µM (inactive)
- GI50 [45]: > 100 µM (inactive)
- GI50 [46]: > 100 µM (inactive)
- GI50 [47]: > 100 µM (inactive)
- GI50 [48]: > 100 µM (inactive)
- GI50 [49]: > 100 µM (inactive)
- GI50 [50]: > 100 µM (inactive)
- GI50 [51]: > 100 µM (inactive)
- GI50 [52]: > 100 µM (inactive)
- GI50 [53]: > 100 µM
- GI50 [54]: 99.1 µM (inactive)

SMILES: CCOCCOC(=O)C1CCC(=O)N1CN(C(C)=O)c1cc(OC)ccc1OC (centres undefined)
- GI50 [1]: > 100 µM (inactive)
- GI50 [2]: > 100 µM (inactive)
- GI50 [3]: > 100 µM (inactive)
- GI50 [4]: > 100 µM (inactive)
- GI50 [5]: > 100 µM (inactive)
- GI50 [6]: > 100 µM (inactive)
- GI50 [7]: > 100 µM (inactive)
- GI50 [8]: > 100 µM (inactive)
- GI50 [9]: > 100 µM (inactive)
- GI50 [10]: > 100 µM (inactive)
- GI50 [11]: > 100 µM (inactive)
- GI50 [12]: > 100 µM (inactive)
- GI50 [55]: > 100 µM (inactive)
- GI50 [13]: > 100 µM (inactive)
- GI50 [14]: > 100 µM (inactive)
- GI50 [15]: > 100 µM (inactive)
- GI50 [17]: > 100 µM (inactive)
- GI50 [18]: > 100 µM (inactive)
- GI50 [19]: > 100 µM (inactive)
- GI50 [20]: > 100 µM (inactive)
- GI50 [21]: > 100 µM (inactive)
- GI50 [22]: > 100 µM (inactive)
- GI50 [24]: > 100 µM (inactive)
- GI50 [25]: > 100 µM (inactive)
- GI50 [26]: > 100 µM (inactive)
- GI50 [27]: > 100 µM (inactive)
- GI50 [56]: > 100 µM (inactive)
- GI50 [28]: > 100 µM (inactive)
- GI50 [29]: > 100 µM (inactive)
- GI50 [30]: > 100 µM (inactive)
- GI50 [31]: > 100 µM (inactive)
- GI50 [32]: > 100 µM (inactive)
- GI50 [57]: > 100 µM (inactive)
- GI50 [33]: > 100 µM (inactive)
- GI50 [34]: 1 µM (active)
- GI50 [35]: > 100 µM (inactive)
- GI50 [36]: > 100 µM (inactive)
- GI50 [37]: > 100 µM (inactive)
- GI50 [38]: > 100 µM (inactive)
- GI50 [39]: > 100 µM (inactive)
- GI50 [40]: > 100 µM (inactive)
- GI50 [41]: > 100 µM (inactive)
- GI50 [58]: > 100 µM (inactive)
- GI50 [42]: > 100 µM (inactive)
- GI50 [43]: > 100 µM (inactive)
- GI50 [44]: > 100 µM (inactive)
- GI50 [45]: > 100 µM (inactive)
- GI50 [47]: > 100 µM (inactive)
- GI50 [48]: > 100 µM (inactive)
- GI50 [49]: > 100 µM (inactive)
- GI50 [50]: > 100 µM (inactive)
- GI50 [51]: > 100 µM (inactive)
- GI50 [52]: > 100 µM (inactive)
- GI50 [53]: > 100 µM
- GI50 [54]: > 100 µM (inactive)
